Assay results reported in patent US20250154152A1, “INHIBITORS OF NAEGLERIA FOWLERI” (Wisconsin Alumni Research Foundation, priority 2023, published 2025).

Test system: N. fowleri strain Nf69 (ATCC 30215) trophozoites
Assay: Determination of EC50 values against Naegleria fowleri (growth inhibition, CellTiter Glo, 48 h)
Assay type: cell-based
Conditions: ATCC30215, N. fowleri Nf69 trophozoites, 48 h culture, 37° C., CellTiter Glo luminescence, read-out: EC50 uM against N. fowleri
In short: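 Axenic Nf69 trophozoites in Nelson's complete medium with 10% FBS exposed to compound, initially 20–0.375 μM, for 48 h at 37 °C, 5% CO2. Viability read by CellTiter-Glo luminescence; % growth inhibition versus controls, triplicate averages fitted for EC50, with lower ranges used for very potent compounds.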

| EC50 [µM] | SMILES |
| --- | --- |
| 0.0001 to 0.1 | CC(=O)CN1CCC[C@@H]2c3nc4cc(Cl)c(Cl)cc4c(=O)n3CC[C@H]21 (racemic) [trans-7cc, (±)-(4aR,13bS)-10,11-dichloro-4-(2-oxopropyl)-1,2,3,4,4a,5,6,13b-octahydro-8H-[1,6]naphthyridino[5,6-b]quinazolin-8-one] |
| > 10 | CC(C)(C)C(=O)N1CCC[C@@H]2c3nc4cc(Cl)c(Cl)cc4c(=O)n3CC[C@H]21 (racemic) [trans-7d, (±)-(4aR,13bS)-10,11-dichloro-4-pivaloyl-1,2,3,4,4a,5,6,13b-octahydro-8H-[1,6]naphthyridino[5,6-b]quinazolin-8-one] |
| 0.0001 to 0.1 | COc1cc2nc3n(c(=O)c2cc1Cl)CC[C@@H]1[C@@H]3CCCN1CC1COC1 (racemic) [trans-7dd, (±)-(4aR,13bS)-10-chloro-11-methoxy-4-(oxetan-3-ylmethyl)-1,2,3,4,4a,5,6,13b-octahydro-8H-[1,6]naphthyridino[5,6-b]quinazolin-8-one] |
| > 10 | O=C(C1CCOCC1)N1CCC[C@@H]2c3nc4cc(Cl)c(Cl)cc4c(=O)n3CC[C@H]21 (racemic) [trans-7e, (±)-(4aR,13bS)-10,11-dichloro-4-(tetrahydro-2H-pyran-4-carbonyl)-1,2,3,4,4a,5,6,13b-octahydro-8H-[1,6]naphthyridino[5,6-b]quinazolin-8-one] |
| 0.1 to 1 | COc1cc2nc3n(c(=O)c2cc1Cl)CC[C@@H]1[C@@H]3CCCN1CC(C)C (racemic) [trans-7ee, (±)-(4aR,13bS)-10-chloro-4-isobutyl-11-methoxy-1,2,3,4,4a,5,6,13b-octahydro-8H-[1,6]naphthyridino[5,6-b]quinazolin-8-one] |
| > 10 | O=C(N1CCOCC1)N1CCC[C@@H]2c3nc4cc(Cl)c(Cl)cc4c(=O)n3CC[C@H]21 (racemic) [trans-7f, (±)-(4aR,13bS)-10,11-dichloro-4-(morpholine-4-carbonyl)-1,2,3,4,4a,5,6,13b-octahydro-8H-[1,6]naphthyridino[5,6-b]quinazolin-8-one] |
| 0.1 to 1 | COc1cc2nc3n(c(=O)c2cc1Cl)CC[C@@H]1[C@@H]3CCCN1CCOC(C)C (racemic) [trans-7ff, (±)-(4aR,13bS)-10-chloro-4-(2-isopropoxyethyl)-11-methoxy-1,2,3,4,4a,5,6,13b-octahydro-8H-[1,6]naphthyridino[5,6-b]quinazolin-8-one] |
| 0.1 to 1 | CN(C)CC(=O)N1CCC[C@@H]2c3nc4cc(Cl)c(Cl)cc4c(=O)n3CC[C@H]21 (racemic) [trans-7g, (±)-(4aR,13bS)-10,11-dichloro-4-(dimethylglycyl)-1,2,3,4,4a,5,6,13b-octahydro-8H-[1,6]naphthyridino[5,6-b]quinazolin-8-one] |
| 0.0001 to 0.1 | COc1cc2nc3n(c(=O)c2cc1Cl)CC[C@@H]1[C@@H]3CCCN1CC1CC1 (racemic) [trans-7gg, (±)-(4aR,13bS)-10-chloro-4-(cyclopropylmethyl)-11-methoxy-1,2,3,4,4a,5,6,13b-octahydro-8H-[1,6]naphthyridino[5,6-b]quinazolin-8-one] |
| > 10 | O=C(c1ccccc1)N1CCC[C@@H]2c3nc4cc(Cl)c(Cl)cc4c(=O)n3CC[C@H]21 (racemic) [trans-7h, (±)-(4aR,13bS)-4-benzoyl-10,11-dichloro-1,2,3,4,4a,5,6,13b-octahydro-8H-[1,6]naphthyridino[5,6-b]quinazolin-8-one] |
| 0.0001 to 0.1 | COc1cc2nc3n(c(=O)c2cc1Cl)CC[C@@H]1[C@@H]3CCCN1CC1CCC1 (racemic) [trans-7hh, (±)-(4aR,13bS)-10-chloro-4-(cyclobutylmethyl)-11-methoxy-1,2,3,4,4a,5,6,13b-octahydro-8H-[1,6]naphthyridino[5,6-b]quinazolin-8-one] |
| 0.0001 to 0.1 | COCCN1CCC[C@@H]2c3nc4cc(Cl)c(Cl)cc4c(=O)n3CC[C@H]21 (racemic) [trans-7i, (±)-(4aR,13bS)-10,11-dichloro-4-(2-methoxyethyl)-1,2,3,4,4a,5,6,13b-octahydro-8H-[1,6]naphthyridino[5,6-b]quinazolin-8-one] |
| 0.1 to 1 | COc1cc2nc3n(c(=O)c2cc1Cl)CC[C@@H]1[C@@H]3CCCN1Cc1cccnc1 (racemic) [trans-7ii, (±)-(4aR,13bS)-10-chloro-11-methoxy-4-(pyridin-3-ylmethyl)-1,2,3,4,4a,5,6,13b-octahydro-8H-[1,6]naphthyridino[5,6-b]quinazolin-8-one] |
| 0.1 to 1 | O=c1c2cc(Cl)c(Cl)cc2nc2n1CC[C@@H]1[C@@H]2CCCN1Cc1ccncc1 (racemic) [trans-7k, (±)-(4aR,13bS)-10,11-dichloro-4-(pyridin-4-ylmethyl)-1,2,3,4,4a,5,6,13b-octahydro-8H-[1,6]naphthyridino[5,6-b]quinazolin-8-one] |
| 0.1 to 1 | COc1cc2nc3n(c(=O)c2cc1C#N)CC[C@@H]1[C@@H]3CCCN1CC1COC1 (racemic) [trans-7kk, (±)-(4aR,13bS)-11-methoxy-4-(oxetan-3-ylmethyl)-8-oxo-2,3,4,4a,5,6,8,13b-octahydro-1H-[1,6]naphthyridino[5,6-b]quinazoline-10-carbonitrile] |
| 0.0001 to 0.1 | CC(C)CN1CCC[C@@H]2c3nc4cc(Cl)c(Cl)cc4c(=O)n3CC[C@H]21 (racemic) [trans-7l, (±)-(4aR,13bS)-10,11-dichloro-4-isobutyl-1,2,3,4,4a,5,6,13b-octahydro-8H-[1,6]naphthyridino[5,6-b]quinazolin-8-one] |
| 0.0001 to 0.1 | O=c1c2cc(Cl)c(Cl)cc2nc2n1CC[C@@H]1[C@@H]2CCCN1CC1COC1 (racemic) [trans-7m, (±)-(4aR,13bS)-10,11-dichloro-4-(oxetan-3-ylmethyl)-1,2,3,4,4a,5,6,13b-octahydro-8H-[1,6]naphthyridino[5,6-b]quinazolin-8-one] |
| 0.1 to 1 | COc1cc2nc3n(c(=O)c2cc1Cl)CC[C@@H]1[C@@H]3CCCN1CCN1CCOCC1 (racemic) [trans-7mm, (±)-(4aR,13bS)-10-chloro-11-methoxy-4-(2-morpholinoethyl)-1,2,3,4,4a,5,6,13b-octahydro-8H-[1,6]naphthyridino[5,6-b]quinazolin-8-one] |
| 0.0001 to 0.1 | COc1cc(CN2CCC[C@@H]3c4nc5cc(Cl)c(Cl)cc5c(=O)n4CC[C@H]32)cc(OC)c1 (racemic) [trans-7n, (±)-(4aR,13bS)-10,11-dichloro-4-(3,5-dimethoxybenzyl)-1,2,3,4,4a,5,6,13b-octahydro-8H-[1,6]naphthyridino[5,6-b]quinazolin-8-one] |
| 0.1 to 1 | COc1cc2nc3n(c(=O)c2cc1Cl)CC[C@@H]1[C@@H]3CCCN1CCN1CCCC1 (racemic) [trans-7nn, (±)-(4aR,13bS)-10-chloro-11-methoxy-4-(2-(pyrrolidin-1-yl)ethyl)-1,2,3,4,4a,5,6,13b-octahydro-8H-[1,6]naphthyridino[5,6-b]quinazolin-8-one] |
| 1 to 10 | O=c1c2cc(Cl)c(Cl)cc2nc2n1CC[C@@H]1[C@@H]2CCCN1Cc1ccccn1 (racemic) [trans-7o, (±)-(4aR,13bS)-10,11-dichloro-4-(pyridin-2-ylmethyl)-1,2,3,4,4a,5,6,13b-octahydro-8H-[1,6]naphthyridino[5,6-b]quinazolin-8-one] |
| 0.1 to 1 | CN(C)CCN1CCC[C@@H]2c3nc4cc(Cl)c(Cl)cc4c(=O)n3CC[C@H]21 (racemic) [trans-7oo, (±)-(4aR,13bS)-10,11-dichloro-4-(2-(dimethylamino)ethyl)-1,2,3,4,4a,5,6,13b-octahydro-8H-[1,6]naphthyridino[5,6-b]quinazolin-8-one] |
| 0.1 to 1 | Cc1cccc(CN2CCC[C@@H]3c4nc5cc(Cl)c(Cl)cc5c(=O)n4CC[C@H]32)n1 (racemic) [trans-7p, (±)-(4aR,13bS)-10,11-dichloro-4-((6-methylpyridin-2-yl)methyl)-1,2,3,4,4a,5,6,13b-octahydro-8H-[1,6]naphthyridino[5,6-b]quinazolin-8-one] |
| 0.0001 to 0.1 | O=c1c2cc(Cl)c(Cl)cc2nc2n1CC[C@@H]1[C@@H]2CCCN1CC1CC1 (racemic) [trans-7q, (±)-(4aR,13bS)-10,11-dichloro-4-(cyclopropylmethyl)-1,2,3,4,4a,5,6,13b-octahydro-8H-[1,6]naphthyridino[5,6-b]quinazolin-8-one] |
| > 10 | N#Cc1ccc(CN2CCC[C@@H]3c4nc5cc(Cl)c(Cl)cc5c(=O)n4CC[C@H]32)cc1 (racemic) [trans-7r, (±)-(4-(((4aR,13bS)-10,11-dichloro-8-oxo-2,3,5,6,8,13b-hexahydro-1H-[1,6]naphthyridino[5,6-b]quinazolin-4(4aH)-yl)methyl)benzonitrile] |
| > 10 | CC(C)(C)c1ccc(CN2CCC[C@@H]3c4nc5cc(Cl)c(Cl)cc5c(=O)n4CC[C@H]32)cc1 (racemic) [trans-7s, (±)-(4aR,13bS)-4-(4-(tert-butyl)benzyl)-10,11-dichloro-1,2,3,4,4a,5,6,13b-octahydro-8H-[1,6]naphthyridino[5,6-b]quinazolin-8-one] |
| 0.1 to 1 | O=c1c2cc(Cl)c(Cl)cc2nc2n1CC[C@@H]1[C@@H]2CCCN1Cc1ccccc1 (racemic) [trans-7w, (±)-(4aR,13bS)-4-benzyl-10,11-dichloro-1,2,3,4,4a,5,6,13b-octahydro-8H-[1,6]naphthyridino[5,6-b]quinazolin-8-one] |

| SMILES | EC50 [µM] |
| --- | --- |
| O=c1c2cc(Cl)c(Cl)cc2nc2n1CC[C@@H]1[C@@H]2CCCN1CCO (racemic) [trans-7j, (±)-(4aR,13bS)-10,11-dichloro-4-(2-hydroxyethyl)-1,2,3,4,4a,5,6,13b-octahydro-8H-[1,6]naphthyridino[5,6-b]quinazolin-8-one] | 0.0001 to 0.1 |
| COc1cc2nc3n(c(=O)c2cc1C#N)CC[C@@H]1[C@@H]3CCCN1C (racemic) [trans-7jj, (±)-(4aR,13bS)-11-methoxy-4-methyl-8-oxo-2,3,4,4a,5,6,8,13b-octahydro-1H-[1,6]naphthyridino[5,6-b]quinazoline-10-carbonitrile] | 1 to 10 |
